This experiment concerns HBV rcDNA. The experiment can be described thus: HepDE19 assay with bDNA quantitation of HBV rcDNA. It is filed as cell-based, hepatitis B virus. The following applies: read-out: DE-19bDNA EC50. As for the experimental part:
HepDE19 Assay with bDNA Quantitation of HBV rcDNA:
HepDE19 cell culture system is a HepG2 (human hepatocarcinoma) derived cell line that supports HBV DNA replication and cccDNA formation in a tetracycline (Tet)-regulated manner and produces HBV rcDNA and a detectable reporter molecule dependent on the production and maintenance of cccDNA (Guo, et al., 2007, J. Virol. 81:12472-12484).
HepDE19 (50,000 cells/well) were plated in 96-well collagen-coated tissue-culture treated microtiter plates in DMEM/F12 medium supplemented with 10% fetal bovine serum, 1% penicillin-streptomycin and 1 μg/mL tetracycline and incubated in a humidified incubator at 37° C. and 5% CO2 overnight. Next day, the cells were switched to fresh medium without tetracycline and incubated for 4 hours at 37° C. and 5% CO2. The cells were treated with fresh Tet-free medium with compounds at concentrations starting at 25 μM and a serial, […], 8-point, titration series in duplicate. The final DMSO concentration in the assay was 0.5%. The plates were incubated for 7 days in a humidified incubator at 37° C. and 5% CO2. Following a 7 day-incubation, the level of rcDNA present in the inhibitor-treated wells was measured using a Quantigene 2.0 bDNA assay kit (Affymetrix, Santa Clara, Calif.) with HBV specific custom probe set and manufacturers instructions. Concurrently, the effect of compounds on cell viability was assessed using replicate plates, plated at a density of 5,000 cells/well and incubated for 4 days, to determine the ATP content as a measure of cell viability using the cell-titer glo reagent (CTG; Promega Corporation, Madison, Wis.) as per manufacturer's instructions. The plates were read using a Victor luminescence plate reader (PerkinElmer Model 1420 Multilabel counter) and the relative luminescence units (RLU) data generated from each well was calculated as % inhibition of the untreated control wells and analyzed using XL-Fit module in Microsoft Excel to determine EC50 and EC90 (bDNA) and CC50 (CTG) values using a 4-parameter curve fitting algorithm.

Where [1] appears, read: Hepatitis B virus, HepDE19, HepDE19 assay, inhibition of formation of relaxed circular DNA (rcDNA), bDNA quantitation.
The mark [2] stands for this setting: HepDE19 assay, inhibition of formation of relaxed circular DNA (rcDNA), bDNA quantitation.
Setting [3] is: HepDE19 assay, inhibition of formation of rcDNA.
The mark [4] stands for this setting: Hepatitis B virus, HepDE19, HepDE19 assay, inhibition of formation of rcDNA.

Where two headings read alike, the source gives them in different places.

A word on the EC50: it is the midpoint of the concentration-response curve. Consider `CC(C)CN(C(=O)Nc1ccc(F)c(Cl)c1)C(C)c1cnc(-n2ccnn2)c2ccccc12` (racemic) [Compound 355, 1-(1-(1-(1H-1,2,3-Triazol-1-yl)isoquinolin-4-yl)ethyl)-3-(3-chloro-4-fluorophenyl)-1-isobutylurea], for which the EC50 under setting [1] was 0.018 µM. For `CC(c1c[nH]c(=O)c2cc(F)c(F)cc12)N(CCCO)C(=O)Nc1ccc(F)cc1` (single isomer, unassigned) [Compound 292, 1-(1-(6,7-Difluoro-1-oxo-1,2-dihydroisoquinolin-4-yl)ethyl)-3-(4-fluorophenyl)-1-(3-hydroxypropyl) urea], the EC50 under setting [2] was 0.01 µM. Turning to `CC(c1cnc(NCc2nc[nH]n2)c2ccccc12)N(C)C(=O)Nc1ccc(F)c(Cl)c1` (single isomer, unassigned) [Compound 247, 1-(1-(1-(((1H-1,2,4-Triazol-3-yl)methyl)amino)isoquinolin-4-yl)ethyl)-3-(3-chloro-4-fluorophenyl)-1-methylurea], the EC50 under setting [3] came to 0.39 µM. Take `CC(c1cn(C)c(=O)c2c(F)c(F)ccc12)N(C)C(=O)Nc1ccc(F)c(Cl)c1` (single isomer, unassigned) [Compound 332, 3-(3-Chloro-4-fluorophenyl)-1-(1-(7,8-difluoro-2-methyl-1-oxo-1,2-dihydroisoquinolin-4-yl)ethyl)-1-methylurea]: under setting [2], the EC50 worked out at 3.7 µM. As to `COCCCN(Cc1cnc(OC)c2ccccc12)C(=O)Nc1ccc(F)c(Cl)c1` [Compound 47, 3-(3-Chloro-4-fluorophenyl)-1-((1-methoxyisoquinolin-4-yl)methyl)-1-(3-methoxypropyl)urea], the EC50 under setting [4] amounted to 2 µM. `CC(c1c[nH]c(=O)c2ccccc12)N(Cc1cncnc1)C(=O)Nc1ccc(F)c(Cl)c1` (single isomer, unassigned) [Compound 320, 3-(3-Chloro-4-fluorophenyl)-1-(1-(1-oxo-1,2-dihydroisoquinolin-4-yl)ethyl)-1-(pyrimidin-5-ylmethyl)urea]: the EC50 under setting [1] is 13 µM.

On to `CC(c1c[nH]c(=O)c2ccc(F)cc12)N(C)C(=O)Nc1ccc(F)c(Cl)c1` (single isomer, unassigned) [Compound 169, 3-(3-Chloro-4-fluorophenyl)-1-(1-(6-fluoro-1-oxo-1,2-dihydroisoquinolin-4-yl)ethyl)-1-methylurea], for which the EC50 under setting [3] stood at 2.1 µM. With `CC(c1c[nH]c(=O)c2c(F)c(F)ccc12)N(CCCO)C(=O)Nc1ccc(F)c(Cl)c1` (single isomer, unassigned) [Compound 335, 3-(3-Chloro-4-fluorophenyl)-1-(1-(7,8-difluoro-1-oxo-1,2-dihydroisoquinolin-4-yl)ethyl)-1-(3-hydroxypropyl)urea], under setting [2], the EC50 was found to be 0.006 µM. For `CC(c1c[nH]c(=O)c2ccccc12)N(CC1COC(C)(C)OC1)C(=O)Nc1ccc(F)cc1` (single isomer, unassigned) [Compound 274, 3-(4-Fluorophenyl)-1-((2,2-dimethyl-1,3-dioxan-5-yl)methyl)-1-(1-(1-oxo-1,2-dihydroisoquinolin-4-yl)ethyl)urea], the EC50 under setting [4] was found to be 1.8 µM. As for `CC(c1c[nH]c(=O)c2ccccc12)N(Cc1cscn1)C(=O)Nc1ccc(F)c(Cl)c1` (single isomer, unassigned) [Compound 312, 3-(3-Chloro-4-fluorophenyl)-1-(1-(1-oxo-1,2-dihydroisoquinolin-4-yl)ethyl)-1-(thiazol-4-ylmethyl)urea], the EC50 under setting [2] turned out to be 4.6 µM. As for `CC(c1c[nH]c(=O)c2cc(F)c(F)cc12)N(C)C(=O)Nc1cccc(F)c1F` (single isomer, unassigned) [Compound 430, 1-(1-(6,7-Difluoro-1-oxo-1,2-dihydroisoquinolin-4-yl)ethyl)-3-(2,3-difluorophenyl)-1-methylurea], the EC50 under setting [2] is 12 µM. With `CC(c1c[nH]c(=O)c2ccccc12)N(CC1CCOCC1)C(=O)Nc1ccc(F)c(Cl)c1` (single isomer, unassigned) [Compound 141, 3-(3-Chloro-4-fluorophenyl)-1-(1-(1-oxo-1,2-dihydroisoquinolin-4-yl)ethyl)-1-((tetrahydro-2H-pyran-4-yl)methyl)urea], under setting [3], the EC50 is 3.4 µM.

(Values after patent US20230045421A1 (priority 2018, published 2023).)
